Patent US9809623B2, “α4β7 peptide monomer and dimer antagonists” (Protagonist Therapeutics, Inc., priority 2014, dated 2017)
Numbered stars: 1 amine (or outer) side, 2 acyl side, 3 side chain; on linkers, the order of the positions; unused ones are H or OH. Bridge positions count the residues as written; N and C are the ends. Square brackets hold non-standard residues; d marks the D form. Peptide text beside a SMILES is read from it. I, II: the chains in the order shown. ξ: configuration not given here. Phe(4-tBu) = CC(C)(C)c1ccc(C[C@H](N)C(=O)O)cc1; Diglycolyl = O=C(COCC(=O)[*:2])[*:1]; NMeR = CN[C@@H](CCCNC(=N)N)C(=O)O; β3hE = N[C@@H](CCC(=O)O)CC(=O)O; Thr(3ξ) = CC(O)[C@H](N)C(=O)O; Pen = CC(C)(S)[C@H](N)C(=O)O

Tests used:
[1] = tested on: BALB/c mice, chronic DSS colitis; assay: 15 day chronic DSS colitis mouse model; type: in vivo
Procedure: To further evaluate the efficacy of peptides of the present invention in treating colitis, a chronic DSS colitis mouse model was used to examine the effects of orally administered Peptide X or another peptide, Peptide XX, as compared to vehicle control or the antibodies, MECA 367 and DATK32. Peptide XX is a dimer having the following structure, where DIG links the two peptide monomers by their C-termini:
In this 15 day chronic DSS colitis study, BALB/c mice were treated continuously with 2.5% DSS. Peptide X dosing was 55 mg/kg/day, 17 mg/kg/day or 6 mg/kg/day in drinking water. Peptide XX dosing was 10 mg/kg PO BID plus 0.2 mg/ml in drinking water. The anti-α4β7 Ab DATK32 was dosed 25 mg/kg IP every 3 days, and the anti-MAdCAM Ab MECA 367 was dosed 8 mg/kg IP daily. After takedown, distal colon sections were fixed for histopathology and processed for β7+ cell IH staining using the anti-β7 antibody M293.

Plasma Stability Assay = type: in vitro ADME; settings: rat, Table 4-C, t1/2
Method in brief: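 Rat plasma at 37° C with gentle shaking, peptide added from 10 mM stock; samples taken at 0, 10, 30, 45, 60, 120 and 180 min and quenched 1:4 with acetonitrile/0.1% formic acid. After centrifugation, supernatants were mixed with internal standard peptide (1 ug/mL) and analysed by LC-MS.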

[2] = Cysteine/Cystine Redox Stability Assay; type: physicochemical; settings: Table 4-C; ORP where half of the oxidized peptide remains
Procedure: Peptides were diluted to 90 μM by adding 4.545 μl of a 10 mM peptide DMSO stock to 495.45 μl of 100 mM Tris-Cl, pH 7.5. Aliquots of […] were transferred to 8 wells down a column of a 96 well plate. 20 μl of 2.5 mM Cystine in 100 mM Tris-Cl, pH 7.5 was added to each well. Cysteine stock solutions in 100 mM Tris-Cl, pH 7.5 were prepared fresh at the following concentrations: 400 mM, 200 mM, 80 mM, 44 mM, 22 mM, 11 mM, 5.5 mM and blank. At time 0, 25 μl of each cysteine stock solution was added to the 55 μl of cystine/peptide solution, and the mixture was incubated at room temperature for 40 min. The samples were quenched by adding 20 μl of 5M acetic acid and analyzed by reverse phase HPLC. The fraction of oxidized peptide was calculated and plotted against the calculated oxidation reduction potential (ORP) as defined by the Nernst equation. The ORP where half of the oxidized peptide remains is shown below.

Intestinal Wash Assay = type: in vitro ADME; parameters: dose or concentration left out as unconfirmed; settings: rat, rat intestinal wash fluid (small intestine); Table 4-C, t1/2
Procedure: Intestinal wash assay solution was prepared from rats fasted for at least 6 hours prior. The animals were euthanized and a midline incision was made from the point of the jaw to the pubis. The abdomen and chest were opened by making 2 incisions through the anterior chest wall on either side. Hemostats were used to clamp off both ends of the animal's stomach—where the esophagus meets the stomach and where the stomach meets the duodenum. A hemostat was also used to clamp 2-3 cm down the intestine from where the stomach meets the duodenum.
Intestinal wash assay solution was prepared by separating 20 cm of the small intestine from the body. Once separated 20 cm, the end was clamped with a hemostat and the section cut from the body, leaving the hemostats in place on the removed section. 1 mL of chilled saline was drawn up with a 1 mL syringe. One end of the intestine was held up and the clamp removed. Approximately 2-2.5 cm of the gavage needle was inserted into the intestine, and the saline was slowly injected. The fluid was massaged down the length of the intestine using gloved fingers. The gavage needle was removed and the clamp was replaced on the end of the intestine. The intestine was sat straight and a q-tip was run firmly up and down the length of the outside of the intestine approximately 3-6 times to mix the enzymes with the saline. One end of the intestine was held up and some of the fluid was carefully moved at the top down. The clamp was removed and that end of the intestine was set into a small weigh boat on ice. The other end of the intestine was carefully picked up and held vertically. Gloved fingers were gently run down it to squeeze the fluid into the container. The previous steps saline injection and fluid procurement steps were repeated twice using only 0.5 mL of chilled saline. The sample was pipetted from the weigh boat into a centrifuge tube and placed on ice. All intestinal wash samples were spun down in a cold centrifuge at 12,000×g for 10 minutes. The supernatant from the top of each centrifuged sample was pipetted into cryotubes, and kept on ice until use.
Intestinal wash assays were performed using intestinal wash assay solution prepared as described above. A sufficient amount of rat intestinal wash was thawed. For each sample, 200 uL of rat intestinal wash fluid was pipetted into 1.5 mL Eppendorf tubes (number of tubes for experiment=number of test peptides×N). The tubes were pre-incubated for about 10 minutes in a water bath at 37° C.
Peptide working solutions ([…]) were prepared by combining 2 μl of 10 mM DMSO stock with 128 μl 100 mM Tris pH 7.5.
Peptide quench solvent (50% ACN-50% MeOH-5% Formic Acid)+IS (5 ug/ml; 1 ul of 10 mg/mL IS per 2 mL quench solvent) was prepare and a quench plate prepared and placed on ice. 200 ul of quench solution was added to each well of the quench plate for T=0, 10, 20, 30, 60 and 180 min collection.
For each test sample and a positive control, 30 ul of peptide working solution was added to a tube of intestinal wash fluid. The tube was gently vortexed and 30 ul was immediately removed and quenched in T=0 well of quench plate (pipetted directly into the quench solution). This well was covered tightly to prevent evaporation. 30 ul aliquots were removed at T=10 min, T=20 min, T=30 min, T=60 min, and T=180 min, and quenched. When all time points were collected, the quench plate was centrifuged at 10,000 rpm for 10 minutes. 150 uL of each supernatant was transferred to a polypropylene 96-well collection plate. 300 ul Mobile Phase A was added to each collection, and LC/MS/MS analysis was performed to determine the amount or concentration of peptide remaining in each test sample and positive control.

[3] = 10 mg/kg PO BID plus 0.2 mg/ml in drinking water

CC(=O)N[C@@H]1C(=O)N(C)[C@@H](CCCNC(=N)N)C(=O)N[C@@H](CO)C(=O)N[C@@H](CC(=O)O)C(=O)N[C@@H](C(C)O)C(=O)N[C@@H](CC(C)C)C(=O)N[C@H](C(=O)N[C@@H](Cc2ccc(C(C)(C)C)cc2)C(=O)N[C@@H](CCC(=O)O)CC(=O)N[C@H](CCCCNC(=O)COCC(=O)NCCCC[C@@H](NC(=O)C[C@H](CCC(=O)O)NC(=O)[C@H](Cc2ccc(C(C)(C)C)cc2)NC(=O)[C@H]2NC(=O)[C@H](CC(C)C)NC(=O)[C@H](C(C)O)NC(=O)[C@H](CC(=O)O)NC(=O)[C@H](CO)NC(=O)[C@H](CCCNC(=N)N)N(C)C(=O)[C@@H](NC(C)=O)C(C)(C)SSC2(C)C)C(N)=O)C(N)=O)C(C)(C)SSC1(C)C (stereo partly drawn) [Peptide X, [Ac-Pen-(N-Me-Arg)-Ser-Asp-Thr-Leu-Pen-(Phe(4-tBu))-(β-homoGlu)-(D-Lys)]2-DIG] (I: Ac-[Pen][NMeR]SD[Thr(3ξ)]L[Pen][Phe(4-tBu)][β3hE][dK]-NH2 / II: Ac-[Pen][NMeR]SD[Thr(3ξ)]L[Pen][Phe(4-tBu)][β3hE][dK]-NH2; disulfide I:1-I:7, II:1-II:7; linker I:10-II:10 via Diglycolyl)
infiltration of B7+ cells into the lamina propria of the distal colon ([1]; all doses: 55, 17 or 6 mg/kg/day in drinking water): reduced infiltration

CC(=O)N[C@@H]1C(=O)N(C)[C@@H](CCCNC(=N)N)C(=O)N[C@@H](CO)C(=O)N[C@@H](CC(=O)O)C(=O)N[C@@H]([C@@H](C)O)C(=O)N[C@@H](CC(C)C)C(=O)N[C@H](C(=O)N[C@@H](Cc2c[nH]c3ccccc23)C(=O)N[C@@H](CCC(=O)O)CC(=O)N[C@H](CCCCNC(=O)COCC(=O)NCCCC[C@@H](NC(=O)C[C@H](CCC(=O)O)NC(=O)[C@H](Cc2c[nH]c3ccccc23)NC(=O)[C@H]2NC(=O)[C@H](CC(C)C)NC(=O)[C@H]([C@@H](C)O)NC(=O)[C@H](CC(=O)O)NC(=O)[C@H](CO)NC(=O)[C@H](CCCNC(=N)N)N(C)C(=O)[C@@H](NC(C)=O)C(C)(C)SSC2(C)C)C(N)=O)C(N)=O)C(C)(C)SSC1(C)C [compound 213, [Ac-Pen-(N-Me-Arg)-Ser-Asp-Thr-Leu-Pen-Trp-(β-homoGlu)-(D-Lys)-NH2]2-DIG] (I: Ac-[Pen][NMeR]SDTL[Pen]W[β3hE][dK]-NH2 / II: Ac-[Pen][NMeR]SDTL[Pen]W[β3hE][dK]-NH2; disulfide I:1-I:7, II:1-II:7; linker I:10-II:10 via Diglycolyl)
colon macroscopic and histopathology scores [1, 3]: reduced colon macroscopic and histopathology scores comparable to the antibodies
infiltration of B7+ cells into the lamina propria of the distal colon [1, 3]: reduced infiltration

CC(=O)N[C@@H]1C(=O)N(C)[C@@H](CCCNC(=N)N)C(=O)N[C@@H](CO)C(=O)N[C@@H](CC(=O)O)C(=O)N[C@@H]([C@@H](C)O)C(=O)N[C@@H](CC(C)C)C(=O)N[C@H](C(=O)N[C@@H](Cc2c[nH]c3ccccc23)C(=O)N[C@H](CCCCNC(=O)COCC(=O)NCCCC[C@@H](NC(=O)[C@H](Cc2c[nH]c3ccccc23)NC(=O)[C@H]2NC(=O)[C@H](CC(C)C)NC(=O)[C@H]([C@@H](C)O)NC(=O)[C@H](CC(=O)O)NC(=O)[C@H](CO)NC(=O)[C@H](CCCNC(=N)N)N(C)C(=O)[C@@H](NC(C)=O)C(C)(C)SSC2(C)C)C(N)=O)C(N)=O)C(C)(C)SSC1(C)C [compound 209, (Ac-Pen-N-Me-R-S-D-T-L-Pen-W-k-NH2)2-DIG] (I: Ac-[Pen][NMeR]SDTL[Pen]W[dK]-NH2 / II: Ac-[Pen][NMeR]SDTL[Pen]W[dK]-NH2; disulfide I:1-I:7, II:1-II:7 (inferred); linker I:9-II:9 via Diglycolyl (inferred))
half-life at 20 μM (Plasma Stability Assay): > 3 h
Cys/CySS (mV) [2]: <−300 mV
half-life (Intestinal Wash Assay): > 3 h
